Target: T1, HIV-TAT (Human immunodeficiency virus type 1 group M subtype B, UniProt P04608)
T1 construct: expressed in transfected cells; host or cells: COS cells
Assay: anti-HIV-TAT assay (SeAP reporter under HIV-LTR versus RSV-LTR in transfected COS cells)
Type: cell-based
Settings: specific inhibition 100 [(1-A/B) - (1-C/D)] of SeAP under HIV-LTR versus RSV-LTR, concentrations tested 1 to 50 /1.M, compound added 24 hours post transfection, assayed 48 hours after addition, average of at least three tests
Protocol: The compounds of formula I were tested for anti-HIV-TAT activity in an assay described in US Patent No. 5070010, comprising the following steps: • (a) putting both the expression of the Secreted Alkaline Phosphatase (SeAP) gene and the viral trasactivator TAT gene under the control of the HIV promoter LTR responsive to the action of the HIV transactivator TAT; • (b) transfecting cultured mammalian cells with plasmids which contain the gene constructs of (a) above and cause cellular production of the trasactivating factor TAT ad SeAP; • (c) adding the agent to be tested, here the compounds of formula I; and determining the amount of SeAP produced, by measuring SeAP enzymatic activity, whereby inhibition of SeAP production correlates with the anti-TAT inhibition activity.
In this assay, the inhibition of SeAP positively correlates with anti-TAT activity. The greater the ability of a agent to inhibit SeAP, the greater is its anti-TAT activity.
Specifically, with respect to the results reported below, the anti-HIV-TAT assay was run as follows: • At 24 hours post transfection 1, 10 and 50 /1.M of a test compound of formula I was added to the culture media of COS cells transfected with two plasmids, one containing the reporter gene which codes for SeAP under control of HIV-LTR, and the other containing the HIV-TAT gene also under control of HIV-LTR. […]
The anti-HIV-TAT activities of the test compounds were determined by measuring the amount of alkaline phosphatase in the supernatant media of cultures of cells in which SeAP gene expression was under the control of the HIV LTR promoter. The specific inhibitory activities of the test compounds were calculated according to the formula: 100 [(1-A/B) - (1-C/D)] where A and B are the alkaline phosphatase activites produced by HIV-LTR/SeAP in the presence and absence, respectively, of test compound, and C and D are the alkaline phosphatase activities produced by RSV-LTR/SeAP in the presence and absence, respectively, of test compound. […]

T1 sequence (P04608 whole entry): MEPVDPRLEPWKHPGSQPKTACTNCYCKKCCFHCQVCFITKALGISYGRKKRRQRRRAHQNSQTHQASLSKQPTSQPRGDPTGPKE

## CNC1=Nc2ccc(Cl)cc2C(c2cnn[nH]2)=NC1 [Example 1, 7-chloro-N-methyl-5-(1H-1,2,3-triazol-5-yl)3H-1,4-benzodiazepin-2-amine]
  Anti-HIV-TAT activity: High (High is >60% inhibition)

## CNC1=Nc2ccc(C)cc2C(c2cn[nH]c2)=NC1 [Example 3, N,7-Dimethyl-5-(1 H-pyrazol-4-yl)-3H-1,4-benzodiazepin-2-amine]
  Anti-HIV-TAT activity: High/Medium

## CNC1=Nc2ccc(Cl)cc2C(c2cn[nH]c2)=NC1 [Example 2, 7-chloro-N-methyl-5-(1 H-pyrazol-4-yl)-3H-1,4-benzodiazepin-2-amine]
  Anti-HIV-TAT activity: High/Medium
